Assays:
TNBC cells = experiment: Cellular H2O2 production; assay type: cell-based; details: short term and extended (6 hr) treatment
RelA in MCF-10A cells = experiment: RelA protein level; assay type: cell-based; details: 5 μM, 24 hr
Description: (§1) Western blotting was performed. 20-60 μg of total lysates per lane were loaded on 7%, 10%, or 12% SDS-PAGE and transferred onto nitrocellulose or polyvinylidene difluoride membranes (Bio-Rad). The membranes were probed with primary antibodies against caspase-3, multi-drug resistance protein-1 (MRP1), poly [ADP ribose] polymerase-1 (PARP-1), ubiquitin, RelA; cyclin D1, p21, caspase-9, MRP4, IKKβ, pIKKβ, IκBα, or pIκBα (Cell Signaling); caspase-8 (R&D Systems). Samples were normalized to β-actin (Sigma-Aldrich) or GAPDH (Trevigen).

[1] = tested on: MDA-MB-231 and MDA-MB-468 cells; experiment: FACS cell cycle analysis; assay type: cell-based; details: 5 μM, 24 hr
Description: (§2) Adherent and nonadherent cells were collected, centrifuged at 2000×rpm for 10 min, washed with ice-cold phosphate-buffered saline, fixed with cold 70% ethanol at 4° C. for 30 mins, and stained with 50 μg/mL propidium iodide (Sigma-Aldrich). FACS analysis was performed at the University of Pittsburgh Department of Immunology Unified Flow Core Facility. Three individual experiments were done, and statistical comparisons among phases (G0/G1, S, and G2/M) were determined by one-way analysis of variance followed by Tukey post-test.

MCF-10A cells [2] = experiment: FACS cell cycle analysis; assay type: cell-based; details: 5 μM, 24 hr
Description: as §2

BT-549 cells = experiment: CellTiter-Glo relative growth (luminescent ATP); assay type: cell-based
Description: (§3) HEK 293T, MDA-MB-231, MDA-MB-468, Hs578T and BT-549 cells (American Type Culture Collection) were cultured at 37° C. with 5% CO2 in Dulbecco's modified Eagle's medium containing (DMEM) (Gibco) supplemented with 5% FBS (HyClone), 100 units/ml penicillin, […] streptomycin (Gibco), non-essential amino acids (Gibco) and 2 mM 1-glutamine (Gibco). Doxorubicin (Selleckchem), cisplatin (Sigma) or olaparib (Selleckchem) were dissolved in DMSO or DMF (cisplatin). […] Pure NO2-OA was diluted in DMSO and added to cells after solvation in assay media. Relative cell numbers were compared by measuring the luminescent signal generated by ATP using the CellTiter-Glo (Promega) assay. Cells were plated in a 96-well plate at 5,000 (MDA-MB-231) or 6,600 (BT549 or Hs578T) cells per well.
(§4) Data represent the mean±SEM from 3 independent experiments unless otherwise noted. A p value<0.05 was considered statistically significant. Non-linear curves were generated in GraphPad Prism 7.0 (GraphPad Software, La Jolla, CA, USA) for statistical analysis. EC50 values and standard error were calculated from three independent experiments utilizing a non-linear dose response variable slope model. Significance was tested by one-way ANOVA for multiple groups with Tukey posttest or by t-test when groups were less than three. RAD51 foci number was analyzed with ImageJ. Nuclear boundaries were individually identified in more than 50 cells per treatment group in three independent experiments.
(§5) The growth of BT-549 cells was not affected. […] MDA-MB-231 cells were plated in a 96 well plate and treated with talazoparib (0.01-75 μM) plus OA-NO2 or NDA-NO2 (0.2-12 μM) daily for 3 days. Growth inhibition (relative cell numbers) of MDA-MB-231 cells was determined by luminescent detection of ATP (CellTiter-Glo) (FIG. 1K).

MDA-MB-231 cells = experiment: CellTiter-Glo relative growth (luminescent ATP); assay type: cell-based
Description: as §3, §4, §5

Hs578T cells = experiment: CellTiter-Glo relative growth (luminescent ATP); assay type: cell-based
Description: as §3, §4, §5

MCF-10A cells [3] = experiment: RAD51 foci and γH2AX immunofluorescence after 5 Gy IR; assay type: cell-based
Description: FIGS. 1A-1K. […] FIG. 1A. […] FIG. 1C. […] EC50 values indicate average+SEM, n=3. FIGS. 1D-1F. […] FIG. 1G. […] FIGS. 1H-1I. […] Merged samples include DAPI stained nuclei (blue). […] The average percentages of cells with 5 or more foci from confocal z-stacked images are indicated from 0 or 5 Gy samples+SEM. FIG. 1J. […] Rad51 foci were counted and γH2AX intensities were assessed by ImageJ in 5Gy irradiated cells (histograms), that were analyzed by immunofluorescence (IF). FIG. 1K, upper part. […] FIG. 1K, lower part. Combination index (CI) was calculated by the Chou-Talalay method. CI<1 is synergistic. Data represent the mean from three independent experiments.
To analyze RAD51 foci formation, 10,000 cells were plated to CultureWell 16-well chambered cover glass (MIDSCI) coated with poly-L-lysine (Sigma) and incubated overnight in 5% FBS media. […] Cells were fixed with 10% formalin for 20 min at 4° C. and immunostained with RAD51 (Santa Cruz) or γH2AX (EMD Biosciences) antibodies. Z-stack images were acquired using a Nikon AIR confocal microscope with 60× oil objective and acquisition performed using NIS elements software. Quantification of z-stacks and foci were completed using ImageJ software.

RAD51 = experiment: Biotinylated nitro fatty acid affinity capture of RAD51; assay type: binding; details: 293T cells expressing WT or mutant RAD51
Description: HEK 293T were transiently transfected with Fugene 6 (Promega) and 5 μg RAD51 expressing vectors (wild-type, C312S, or C319S). […] Cells were prepared as above. […] Detection of RAD51 was accomplished by immunoblot with RAD51 antibody (1:2000) with actin antibody (1:3000) probed as loading control.

IKKβ = experiment: TNFα-induced IKKβ phosphorylation, IκBα phosphorylation and degradation; assay type: cell-based
Description: All studies used two TNBC cell lines, MDA-MB-231 and MDA-MB-468. […] For IκBα degradation, cells were treated as described above and stimulated with 20 ng/mL TNFα for 10 min.
as §1

[4] = doxorubicin 72 h plus daily 2 μM NO2-OA
[5] = olaparib 72 h plus daily 2 μM NO2-OA
[6] = cisplatin 72 h plus daily 2 μM NO2-OA

Question: Which “cellular rates of H2O2 production” value (TNBC cells) does the source give for CCCCCCCCC(=CCCCCCCCC(=O)O)[N+](=O)[O-] [NO2-OA, 10-nitro-octadec-9-enoic acid] here?
Answer: Its value is “did not significantly impact cellular rates of H2O2 production”.

Question: And the RelA protein levels (RelA in MCF-10A cells)?
Answer: Its RelA protein levels is “not altered”.

Question: And the “cell cycle phase distribution” value [1]?
Answer: The value was “significantly increased the percentage of cells at G2/M phase”.

Question: And the “cell cycle phase populations (G0/G1, S, G2/M)” value (MCF-10A cells [2])?
Answer: Its value is “not affected”.

Question: What about the EC50 (BT-549 cells; Homo sapiens, BT-549, 72 h, read-out: EC50 for growth inhibition) of the same compound?
Answer: The EC50 was 3.78 ± 0.48 µM.

Question: What about the “growth inhibition with cisplatin, suppressed” value (BT-549 cells; cisplatin 72 h plus daily 2 μM NO2-OA, printed as suppressed) of the same compound?
Answer: Its value is 1.4 fold.

Question: And the “enhanced growth inhibition of doxorubicin” value (BT-549 cells; [4])?
Answer: Its value is “not affected”.

Question: And the “enhanced growth inhibition of olaparib” value (BT-549 cells; [5])?
Answer: Its value is 3 fold.

Question: And the Growth inhibition (MDA-MB-231 cells; 12 or 6.0 μM plus 0.01-75 μM talazoparib, daily for 3 days)?
Answer: Its Growth inhibition is roughly 100%.

Question: And the “EC50 for growth inhibition, compared between compounds” value (MDA-MB-231 cells; ATP Celltiter Glo proliferation assay, n=3)?
Answer: Its value is “higher EC50”.

Question: What about the EC50 (MDA-MB-231 cells; Homo sapiens, MDA-MB-231, 72 h, read-out: EC50 for growth inhibition) of the same compound?
Answer: Its EC50 is 3.66 ± 0.14 µM.

Question: What about the “increased growth inhibition of cisplatin” value (MDA-MB-231 cells; [6]) of the same compound?
Answer: The value was 6 fold.

Question: What about the “enhanced growth inhibition of doxorubicin” value (MDA-MB-231 cells; [4]) of the same compound?
Answer: The value was 7 fold.

Question: And the “enhanced growth inhibition of olaparib” value (MDA-MB-231 cells; [5])?
Answer: Its value is 5 fold.

Question: And the “Combination index (CI), Chou-Talalay” value (MDA-MB-231 cells; with talazoparib (0.01-75 μM), 0.2-12 μM, daily 3 days, CI<1 is synergistic)?
Answer: The value was less than 1.

Question: What about the EC50 (Hs578T cells; Homo sapiens, Hs-578T, 72 h, read-out: EC50 for growth inhibition) of the same compound?
Answer: The EC50 was 1.98 ± 0.52 µM.

Question: What about the “increased growth inhibition of cisplatin” value (Hs578T cells; [6]) of the same compound?
Answer: The value was 3 fold.

Question: What about the “enhanced growth inhibition of doxorubicin” value (Hs578T cells; [4]) of the same compound?
Answer: Its value is 5 fold.

Question: What about the “enhanced growth inhibition of olaparib” value (Hs578T cells; [5]) of the same compound?
Answer: The value was 17 fold.

Question: What about the “RAD51 foci / γH2AX in irradiated benign cells” value (MCF-10A cells [3]) of the same compound?
Answer: The value was “no effect”.

Question: And the “RAD51 cysteine targeted (Cys312Ser, Cys319Ser mutants)” value (RAD51)?
Answer: Its value is “preferential reaction of NO2-OA with Cys319”.

Question: And the “TNFα-induced IKKβ phosphorylation” value (IKKβ; NO2-OA 5 μM or BAY11-7082 10 μM 2 hr, TNFα 20 ng/mL 5 min)?
Answer: Its value is “diminished”.

Question: What about the “degradation of IκBα following TNFα stimulation” value (IKKβ; TNFα 20 ng/mL, 10 min) of the same compound?
Answer: Its value is “inhibited the degradation of IκBβ”.

Question: And the IκBα phosphorylation (IKKβ; with proteasome inhibitor MG-132 10 μM)?
Answer: The IκBα phosphorylation was “decreased IκBβ phosphorylation”.

— patent publication US12390435B2, “Electrophiles and electrophile pro-drugs as RAD51 inhibitors” (University of Pittsburgh—Of the Commonwealth System of …, priority 2018, dated 2025)
